Data reported in patent US20070054916A1, “Aryl nitrogen-containing bicyclic compounds and methods of use” (Amgen Inc., priority 2004, published 2007).

These molecules were tested against LCK KD GST (225-509) (Homo sapiens, UniProt P06239) (assay: LCK Homogenous Time Resolved Flourescent (HTRF) kinase assay). Conditions: average IC50 value in the human HTRF assay for the inhibition of the Lck kinase enzyme.
LCK KD GST (225-509), sequence (P06239 225-509): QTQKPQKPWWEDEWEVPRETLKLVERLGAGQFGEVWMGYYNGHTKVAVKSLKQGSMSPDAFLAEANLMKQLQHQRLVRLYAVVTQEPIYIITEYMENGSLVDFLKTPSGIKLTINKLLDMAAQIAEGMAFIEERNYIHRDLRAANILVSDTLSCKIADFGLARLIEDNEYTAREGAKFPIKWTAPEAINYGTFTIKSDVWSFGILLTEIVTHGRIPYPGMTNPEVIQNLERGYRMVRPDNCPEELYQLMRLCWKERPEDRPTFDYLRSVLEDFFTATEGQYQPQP

SMILES | IC50 [µM]
Cc1ccc(C(=O)Nc2cc(C(F)(F)F)ccc2N(C)C2CCN(C)C2)cc1-c1ccc2nc(N)ncc2c1 (stereo in doubt) [Example 238, 3-(2-amino-6-quinazolinyl)-4-methyl-N-(2-(methyl((3S)-1-methyl-3-pyrrolidinyl)amino-5-(trifluoromethyl)phenyl)berizamide] | ≤ 1
Nc1ncc2cc(-c3ccc(C(=O)Nc4cccc(C(F)(F)F)c4)cc3)ccc2n1 [Example 15, 4-(2-amino-6-quinazolinyl)-N-(3-(trifluoromethyl)phenyl)benzamide] | ≤ 1
Cc1ccc(C(=O)NC2CC2)cc1-c1ccc2nc(NCCN(C)C)ncc2c1 [Example 44] | ≤ 25
Cc1ccc(C(=O)NC2CC2)cc1-c1ccc2nc(NC3CCN(C)CC3)ncc2c1 [Example 45, N-cyclopropyl-4-methyl-3-(2-((1-methyl-4-piperidinyl)amino)-6-quinazolinyl) benzamide] | ≤ 25
Cc1ccc(C(=O)NC2CC2)cc1-c1ccc2nc(NCCN3CCCCC3)ncc2c1 [Example 47, N-cyclopropyl-4-methyl-3-(2-((2-(1-piperidinyl)ethyl)amino)-6-quinazolinyl) benzamide] | ≤ 1
Cc1ccc(C(=O)Nc2cc(Cl)ccc2N(C)CCCN(C)C)cc1-c1ccc2nc(N)ncc2c1 [Example 95, 3-(2-amino-6-quinazolinyl)-N-(5-chloro-2-((3-(dimethylamino)propyl)(methyl)amino)phenyl)-4-methylbenzamide] | ≤ 1
CN(C)CCCN(C)c1ccc(C(F)(F)F)cc1NC(=O)c1cc(-c2ccc3nc(N)ncc3c2)cc2c1OCC2 [Example 96, 5-(2-amino-6-quinazolinyl)-N-(2-((3-(dimethylamino)propyl)(methyl)amino)-5-(trifluoromethyl)phenyl)-2,3-dihydro-1-benzofuran-7-carboxamide] | ≤ 1
Nc1ncc2cc(-c3cccc(C(=O)Nc4cccc(OC(F)(F)F)c4)c3)ccc2n1 [Example 98, 3-(2-amino-6-quinazolinyl)-N-(3-((trifluoromethyl)oxy)phenyl)benzamide] | ≤ 1

These molecules were tested on production of TNF by monocytes activated with bacterial lipopolysaccharide (LPS) (assay: Lipopolysaccharide-activated monocyte TNF production assay). Conditions: Homo sapiens, read-out: IC50 values in the monocyte assay (LPS induced TNF release).
Type: cell-based
How it was run: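 Adherent human PBMC-derived monocytes (~70%) in DMEM/2% FCS were pre-incubated 60 min with nine two-fold compound dilutions, then stimulated with E. coli K532 LPS (added as 30 ng/ml solution) for 4 h at 37 °C. Supernatant TNF-α was measured by sandwich ELISA. IC50 was taken from a polynomial fit of TNF versus compound concentration.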

SMILES | IC50 [µM]
Cc1ccc(C(=O)Nc2ccc(N3CCCC3)c(C(=O)N3CCCC3)c2F)cc1-c1ccc2nc(N)ncc2c1 [Example 428, 3-(2-amino-6-quinazolinyl)-N-(2-fluoro-4-(1-pyrrolidinyl)-3-(1-pyrrolidinylcarbonyl)phenyl)-4-methylbenzamide] | ≤ 25
Cc1ccc(C(=O)Nc2cccc(C#N)c2)cc1-c1ccc2nc(N)ncc2c1 [Example 429, 3-(2-amino-6-quinazolinyl)-N-(3-cyanophenyl)-4-methylbenzamide] | ≤ 25
Cc1ccc(NC(=O)c2cc(C(F)(F)F)ccc2C(F)(F)F)cc1-c1ccc2nc(N)ncc2c1 [Example 430, N-(3-(2-amino-6-quinazolinyl)-4-methylphenyl)-2,5-bis(trifluoromethyl)benzamide] | ≤ 25
Cc1ccc(NC(=O)c2cc(C(F)(F)F)ccc2N(C)CCCN(C)C)cc1-c1ccc2nc(N)ncc2c1 [Example 431, N-(3-(2-amino-6-quinazolinyl)-4-methylphenyl)-2-((3-(dimethylamino)propyl)(methyl)amino)-5-(trifluoromethyl)benzamide] | ≤ 25
Cc1ccc(NC(=O)c2cccc(C(C)C)c2)cc1-c1ccc2nc(N)ncc2c1 [Example 432, N-(3-(2-aminoquinazolin-6-yl)-4-methylphenyl)-3-isopropylbenzamide] | ≤ 25
Nc1ncc2cc(-c3ccc(F)c(NC(=O)c4cc(C(F)(F)F)ccc4F)c3)ccc2n1 [Example 433, N-(5-(2-aminoquinazolin-6-yl)-2-fluorophenyl)-2-fluoro-5-(trifluoromethyl)benzamide] | ≤ 25
CN1CCN(c2ccc(C(F)(F)F)cc2C(=O)Nc2cc(-c3ccc4nc(N)ncc4c3)ccc2F)CC1 [Example 434, N-(5-(2-aminoquinazolin-6-yl)-2-fluorophenyl)-2-(4-methylpiperazin-1-yl)-5-(trifluoromethyl)benzamide] | ≤ 25
Nc1ncc2cc(-c3cc(NC(=O)c4cccc(C(F)(F)F)c4F)ccc3Cl)ccc2n1 [Example 481, N-(3-(2-amino-6-quinazolinyl)-4-chlorophenyl)-2-fluoro-3-(trifluoromethyl)benzamide] | ≤ 25
Nc1ncc2cc(-c3cc(NC(=O)c4cccc(Cl)c4Cl)ccc3Cl)ccc2n1 [Example 482, N-(3-(2-amino-6-quinazolinyl)-4-chlorophenyl)-2,3-dichlorobenzamide] | ≤ 25
Cc1ccc(NC(=O)c2ccccc2)cc1-c1ccc2nc(NC(=O)c3ccccc3)ncc2c1 [Example 483, N-(6-(2-methyl-5-((phenylcarbonyl)amino)phenyl)-2-quinazolinyl)benzamide] | ≤ 25
Nc1ncc2cc(-c3ccc(F)c(NC(=O)c4ccccc4)c3)ccc2n1 [Example 485, N-(5-(2-amino-6-quinazolinyl)-2-fluorophenyl)benzamide] | ≤ 25
Nc1ncc2cc(-c3ccc(F)c(NC(=O)C4CC4)c3)ccc2n1 [Example 486, N-(5-(2-amino-6-quinazolinyl)-2-fluorophenyl)cyclopropanecarboxamide] | ≤ 25
Nc1ncc2cc(-c3ccc(F)c(NC(=O)c4cccc(Cl)c4Cl)c3)ccc2n1 [Example 487, N-(5-(2-amino-6-quinazolinyl)-2-fluorophenyl)-2,3-dichlorobenzamide] | ≤ 25
CC(C)(C)c1ccc(C(=O)Nc2cc(-c3ccc4nc(N)ncc4c3)ccc2F)cc1 [Example 488, N-(5-(2-amino-6-quinazolinyl)-2-fluorophenyl)-4-(1,1-dimethylethyl)benzamide] | ≤ 25
Nc1ncc2cc(-c3ccc(F)c(NC(=O)c4cc(F)cc(C(F)(F)F)c4)c3)ccc2n1 [Example 489, N-(5-(2-amino-6-quinazolinyl)-2-fluorophenyl)-3-fluoro-5-(trifluoromethyl)benzamide] | ≤ 25
COc1cc(OC)cc(C(=O)Nc2cc(-c3ccc4nc(N)ncc4c3)ccc2F)c1 [Example 490, N-(5-(2-amino-6-quinazolinyl)-2-fluorophenyl)-3,5-bis(methyloxy)benzamide] | ≤ 25
CC(C)c1cccc(C(=O)Nc2cc(-c3ccc4nc(N)ncc4c3)ccc2F)c1 [Example 491, N-(5-(2-amino-6-quinazolinyl)-2-fluorophenyl)-3-(1-methylethyl)benzamide] | ≤ 25
COc1ccc(Cl)cc1NC(=O)Nc1ccc(-c2ccc3nc(N)ncc3c2)c(C)c1 [Example 520, N-(4-(2-amino-6-quinazolinyl)-3-methylphenyl)-N′-(5-chloro-2-(methyloxy)phenyl)urea] | ≤ 25
Cc1ccc(NC(=O)Nc2cccc(C(F)(F)F)c2)cc1-c1ccc2nc(N)ncc2c1 [Example 524, N-(3-(2-amino-6-quinazolinyl)-4-methylphenyl)-N′-(3-(trifluoromethyl)phenyl)urea] | ≤ 25
Cc1cccc(C)c1-c1ccc2nc(NCCN3CCOCC3)ncc2c1 [Example 534, 6-(2,6-dimethylphenyl)-N-(2-morpholinoethyl)quinazolin-2-amine] | ≤ 25
Cc1cccc(C)c1-c1ccc2nc(N)ncc2c1 [Example 535, 6-(2,6-dimethylphenyl)-2-quinazolinamine] | ≤ 25
